Measurements reported in ChEMBL document CHEMBL1137259, “Tubeimoside V (1), a new cyclic bisdesmoside from tubers of Bolbostemma paniculatum, functions by inducing apoptosis in human glioblastoma U87MG cells” (Bioorg Med Chem Lett, 2006).
Active and inactive are the calls of the source. No cut-off for these calls is given here.

What was measured:
U-87 MG [1] = test: Induction of apoptosis measured as down regulation of Bcl2 expression in human U87MG cell line by Western blot analysis at 7.0 uM after 24 hrs; type: functional, cell-based; settings: U-87MG ATCC
U-87 MG [2] = test: Cell cycle arrest in U87MG cells by accumulation at SubG1 phase at 7.0 uM after 24 hrs; type: functional, Homo sapiens, U-87MG ATCC
U-87 MG [3] = test: Cell cycle arrest in U87MG cells by accumulation at G0/G1 phase at 7.0 uM after 24 hrs; type: functional, Homo sapiens, U-87MG ATCC
U-87 MG [4] = test: Cell cycle arrest in U87MG cells by accumulation at G0/G1 phase at 2.6 uM after 24 hrs; type: functional, Homo sapiens, U-87MG ATCC
U-87 MG [5] = test: Cell cycle arrest in U87MG cells by accumulation at G2/M phase at 3.6 uM after 24 hrs; type: functional, Homo sapiens, U-87MG ATCC
U-87 MG [6] = test: Cell cycle arrest in U87MG cells by accumulation at S phase at 3.6 uM after 12 hrs; type: functional, Homo sapiens, U-87MG ATCC
U-87 MG [7] = test: Cell cycle arrest in U87MG cells by accumulation at S phase at 7.0 uM after 12 hrs; type: functional, Homo sapiens, U-87MG ATCC
U-87 MG [8] = test: Cell cycle arrest in U87MG cells by accumulation at G2/M phase at 2.6 uM after 24 hrs; type: functional, Homo sapiens, U-87MG ATCC
U-87 MG [9] = test: Cell cycle arrest in U87MG cells by accumulation at S phase at 7.0 uM after 24 hrs; type: functional, Homo sapiens, U-87MG ATCC
U-87 MG [10] = test: Cell cycle arrest in U87MG cells by accumulation at G2/M phase at 7.0 uM after 12 hrs; type: functional, Homo sapiens, U-87MG ATCC
U-87 MG [11] = test: Cell cycle arrest in U87MG cells by accumulation at S phase at 2.6 uM after 12 hrs; type: functional, Homo sapiens, U-87MG ATCC
U-87 MG [12] = test: Cell cycle arrest in U87MG cells by accumulation at SubG1 phase at 7.0 uM after 12 hrs; type: functional, Homo sapiens, U-87MG ATCC
U-87 MG [13] = test: Cell cycle arrest in U87MG cells by accumulation at S phase at 3.6 uM after 24 hrs; type: functional, Homo sapiens, U-87MG ATCC
U-87 MG [14] = test: Cell cycle arrest in U87MG cells by accumulation at SubG1 phase at 2.6 uM after 24 hrs; type: functional, Homo sapiens, U-87MG ATCC
U-87 MG [15] = test: Cell cycle arrest in U87MG cells by accumulation at S phase at 2.6 uM after 24 hrs; type: functional, Homo sapiens, U-87MG ATCC
U-87 MG [16] = test: Cell cycle arrest in U87MG cells by accumulation at G2/M phase at 2.6 uM after 12 hrs; type: functional, Homo sapiens, U-87MG ATCC
U-87 MG [17] = test: Cell cycle arrest in U87MG cells by accumulation at G2/M phase at 7.0 uM after 24 hrs; type: functional, Homo sapiens, U-87MG ATCC
U-87 MG [18] = test: Antiproliferative activity against human U87MG cell line by MTT assay; type: functional, cell-based, U-87MG ATCC
U-87 MG [19] = test: Cell cycle arrest in U87MG cells by accumulation at G0/G1 phase at 3.6 uM after 12 hrs; type: functional, Homo sapiens, U-87MG ATCC
U-87 MG [20] = test: Induction of apoptosis measured as up regulation of Bax expression in human U87MG cell line by Western blot analysis at 7.0 uM after 24 hrs; type: functional, cell-based; settings: U-87MG ATCC
U-87 MG [21] = test: Cell cycle arrest in U87MG cells by accumulation at G2/M phase at 3.6 uM after 12 hrs; type: functional, Homo sapiens, U-87MG ATCC
U-87 MG [22] = test: Cell cycle arrest in U87MG cells by accumulation at SubG1 phase at 3.6 uM after 12 hrs; type: functional, Homo sapiens, U-87MG ATCC
U-87 MG [23] = test: Cell cycle arrest in U87MG cells by accumulation at SubG1 phase at 2.6 uM after 12 hrs; type: functional, Homo sapiens, U-87MG ATCC
U-87 MG [24] = test: Cell cycle arrest in U87MG cells by accumulation at G0/G1 phase at 3.6 uM after 24 hrs; type: functional, Homo sapiens, U-87MG ATCC
U-87 MG [25] = test: Cell cycle arrest in U87MG cells by accumulation at G0/G1 phase at 7.0 uM after 12 hrs; type: functional, Homo sapiens, U-87MG ATCC
U-87 MG [26] = test: Induction of apoptosis measured as chromatin condensation in human U87MG cell line at 7.0 uM after 24 hrs by hoechst 33342 staining; type: functional, cell-based; settings: U-87MG ATCC
U-87 MG [27] = test: Cell cycle arrest in U87MG cells by accumulation at SubG1 phase at 3.6 uM after 24 hrs; type: functional, Homo sapiens, U-87MG ATCC
U-87 MG [28] = test: Cell cycle arrest in U87MG cells by accumulation at G0/G1 phase at 2.6 uM after 12 hrs; type: functional, Homo sapiens, U-87MG ATCC
U-87 MG [29] = test: Induction of apoptosis measured as up regulation of Bax expression in human U87MG cell line by Western blot analysis at 7.0 uM after 6 hrs; type: functional, cell-based; settings: U-87MG ATCC
U-87 MG [30] = test: Induction of apoptosis assessed as phosphatidylserine externalization in human U87MG cell line at 7.0 uM after 24 hrs by annexinV/PI assay; type: functional, cell-based; settings: U-87MG ATCC
U-87 MG [31] = test: Induction of apoptosis measured as down regulation of Bcl2 expression in human U87MG cell line by Western blot analysis at 7.0 uM after 6 hrs; type: functional, cell-based; settings: U-87MG ATCC

Q: For `C[C@@H]1O[C@H]2O[C@@H]3[C@H](OC[C@@H](O)[C@H]3O)OC(=O)[C@]34CCC(C)(C)CC3C3=CCC5[C@@]6(C)C[C@H](O)[C@H](O[C@@H]7O[C@H](CO)[C@@H](O)[C@H](O)[C@H]7O[C@H]7O[C@@H](COC(=O)C[C@](C)(O)CC(=O)O[C@@H]1[C@@H](O[C@@H]1OC[C@@H](O)[C@H](O)[C@H]1O)[C@H]2O)[C@H](O)[C@@H](O)[C@@H]7O)[C@@](C)(CO)C6CC[C@@]5(C)[C@]3(C)CC4` (stereo partly drawn) [TUBEIMOSIDE V], which Activity (U-87 MG [1]) is on record?
A: The Activity was “Active”.

Q: What about the Activity (U-87 MG [2]) of the same molecule?
A: Its Activity is 42.3%.

Q: And the Activity (U-87 MG [3])?
A: The Activity was 53.3%.

Q: What about the Activity (U-87 MG [4]) of the same molecule?
A: The Activity was 51.3%.

Q: And the Activity (U-87 MG [5])?
A: The Activity was 12.3%.

Q: What about the Activity (U-87 MG [6]) of the same molecule?
A: The Activity was 31.4%.

Q: What about the Activity (U-87 MG [7]) of the same molecule?
A: The Activity was 32.6%.

Q: And the Activity (U-87 MG [8])?
A: Its Activity is 17.7%.

Q: And the Activity (U-87 MG [9])?
A: Its Activity is 37.1%.

Q: And the Activity (U-87 MG [10])?
A: Its Activity is 14.1%.

Q: And the Activity (U-87 MG [11])?
A: Its Activity is 27.6%.

Q: And the Activity (U-87 MG [12])?
A: Its Activity is 18.3%.

Q: What about the Activity (U-87 MG [13]) of the same molecule?
A: The Activity was 34.2%.

Q: And the Activity (U-87 MG [14])?
A: The Activity was 9.1%.

Q: What about the Activity (U-87 MG [15]) of the same molecule?
A: Its Activity is 31%.

Q: What about the Activity (U-87 MG [16]) of the same molecule?
A: Its Activity is 22.3%.

Q: And the Activity (U-87 MG [17])?
A: Its Activity is 9.6%.

Q: What about the IC25 (U-87 MG [18]) of the same molecule?
A: The IC25 was 2.6 µM.

Q: What about the IC50 (U-87 MG [18]) of the same molecule?
A: The IC50 was 3.6 µM.

Q: What about the IC75 (U-87 MG [18]) of the same molecule?
A: The IC75 was 7 µM.

Q: What about the Activity (U-87 MG [19]) of the same molecule?
A: Its Activity is 51%.

Q: What about the Activity (U-87 MG [20]) of the same molecule?
A: Its Activity is “Active”.

Q: And the Activity (U-87 MG [21])?
A: Its Activity is 17.6%.

Q: And the Activity (U-87 MG [22])?
A: The Activity was 8.9%.

Q: What about the Activity (U-87 MG [23]) of the same molecule?
A: Its Activity is 4.1%.

Q: And the Activity (U-87 MG [24])?
A: The Activity was 53.5%.

Q: And the Activity (U-87 MG [25])?
A: Its Activity is 53.3%.

Q: What about the Activity (U-87 MG [26]) of the same molecule?
A: The Activity was “Active”.

Q: And the Activity (U-87 MG [27])?
A: The Activity was 20.8%.

Q: And the Activity (U-87 MG [28])?
A: The Activity was 50.1%.

Q: And the Activity (U-87 MG [29])?
A: Its Activity is “Active”.

Q: And the Activity (U-87 MG [30])?
A: The Activity was “Active”.

Q: What about the Activity (U-87 MG [31]) of the same molecule?
A: Its Activity is “Active”.
